IC50 data for 25 compounds are collected here from patent US11472791B2 (Incyte Corporation, priority 2019, dated 2022).

SMILES strings stand for the structures.

The target of the assay is CDK2/Cyclin E1 (Homo sapiens (Human), UniProt P24941). Briefly: CDK2/Cyclin E1 HTRF enzyme activity assay. It counts as biochemical. As to conditions: 1 mM ATP. The procedure: Assays are conducted in white 384-well polystyrene plates in a final reaction volume of 8 μL. […] HTRF signals are read after 1 hour at room temperature on a PHERAstar FS plate reader (BMG Labtech). Data is analyzed with IDBS XLFit and GraphPad Prism 5.0 software using a three or four parameter dose response curve to determine IC50 for each compound.
One may read the IC50 as the concentration that inhibits the measured activity by half. Higher therefore signals weaker potency. `CNCc1ccc(-n2cc(-c3nc(N[C@H]4CCN(S(=O)(=O)c5cn(C)cn5)C[C@H]4C)ncc3C#N)cn2)c(C)n1` [Example 272, 2-(((3R,4S)-3-Methyl-1-((1-methyl-1H-imidazol-4-yl)sulfonyl)piperidin-4-yl)amino)-4-(1-(2-methyl-6-((methylamino)methyl)pyridin-3-yl)-1H-pyrazol-4-yl)pyrimidine-5-carbonitrile] yielded an IC50 below 50 nM.

Compound `CS(=O)(=O)N1CCC(Nc2ncc(C(F)(F)F)c(-c3cnn(-c4ccccc4F)c3)n2)CC1` [Example 13, 4-(1-(2-Fluorophenyl)-1H-pyrazol-4-yl)-N-(1-(methylsulfonyl)piperidin-4-yl)-5-(trifluoromethyl)pyrimidin-2-amine] gave an IC50 below 50 nM.

The compound `Cn1cnc(S(=O)(=O)N2CCC(Nc3ncc(C(F)(F)F)c(-c4cnn(CC5CC5)c4)n3)CC2)c1` [Example 32, 4-(1-(Cyclopropylmethyl)-1H-pyrazol-4-yl)-N-(1-((1-methyl-1H-imidazol-4-yl)sulfonyl)piperidin-4-yl)-5-(trifluoromethyl)pyrimidin-2-amine] registered an IC50 below 50 nM.

`CN[C@H]1C[C@H](n2cc(-c3nc(NC4CCN(S(=O)(=O)c5ccccn5)CC4)ncc3C(F)(F)F)cn2)C1` [Example 50, 4-(1-((1r,3r)-3-(Methylamino)cyclobutyl)-1H-pyrazol-4-yl)-N-(1-(pyridin-2-ylsulfonyl)piperidin-4-yl)-5-(trifluoromethyl)pyrimidin-2-amine] displayed an IC50 below 50 nM.

`CS(=O)(=O)N1CCC(Nc2ncc(C#N)c(-c3cnn(-c4ccc(CN[C@H]5CCC[C@@H]5O)cc4Cl)c3)n2)CC1` [Example 187, 4-(1-(2-Chloro-4-((((1S,2S)-2-hydroxycyclopentyl)amino)methyl)phenyl)-1H-pyrazol-4-yl)-2-((1-(methylsulfonyl)piperidin-4-yl)amino)pyrimidine-5-carbonitrile] gave an IC50 below 50 nM.

On to `Cc1cc(CN2CCN(C)CC2)ccc1-n1cc(-c2nc(NC3CCN(S(=O)(=O)c4cn(C)cn4)CC3)ncc2C#N)cn1` [Example 243, 2-((1-((1-Methyl-1H-imidazol-4-yl)sulfonyl)piperidin-4-yl)amino)-4-(1-(2-methyl-4-((4-methylpiperazin-1-yl)methyl)phenyl)-1H-pyrazol-4-yl)pyrimidine-5-carbonitrile], for which the IC50 was below 50 nM.

On to `CCCS(=O)(=O)N1CC[C@H](Nc2ncc(C#N)c(-c3cnn(-c4ccc(CNC)cc4Cl)c3)n2)[C@H](F)C1` [Example 118, 4-(1-(2-Chloro-4-((methylamino)methyl)phenyl)-1H-pyrazol-4-yl)-2-(((3R,4S)-3-fluoro-1-(propylsulfonyl)piperidin-4-yl)amino)pyrimidine-5-carbonitrile], for which the IC50 is below 50 nM.

`CS(=O)(=O)N1CCC(Nc2ncc(Cl)c(-c3cnn(C4CCOCC4)c3)n2)CC1` [Example 22, 5-Chloro-N-(1-(methylsulfonyl)piperidin-4-yl)-4-(1-(tetrahydro-2H-pyran-4-yl)-1H-pyrazol-4-yl)pyrimidin-2-amine] had an IC50 below 50 nM.

`CS(=O)(=O)N1CCC(Nc2ncc(C#N)c(-c3cnn(-c4ccc(CN[C@H]5CC[C@H](O)CC5)cc4Cl)c3)n2)CC1` [Example 182, 4-(1-(2-Chloro-4-((((1r,4r)-4-hydroxycyclohexyl)amino)methyl)phenyl)-1H-pyrazol-4-yl)-2-((1-(methylsulfonyl)piperidin-4-yl)amino)pyrimidine-5-carbonitrile] showed an IC50 below 50 nM.

Compound `CC(C)(O)Cn1cc(-c2nc(N[C@H]3CCN(S(=O)(=O)CCCN4CCCC4)C[C@H]3F)ncc2C(F)(F)F)cn1` [Example 203, 1-(4-(2-(((3R,4S)-3-Fluoro-1-((3-(pyrrolidin-1-yl)propyl)sulfonyl)piperidin-4-yl)amino)-5-(trifluoromethyl)pyrimidin-4-yl)-1H-pyrazol-1-yl)-2-methylpropan-2-ol] gave an IC50 below 50 nM.

Compound `COC(=O)N[C@H]1CC[C@@H](NCc2ccc(-n3cc(-c4nc(NC5CCN(S(C)(=O)=O)CC5)ncc4C#N)cn3)c(Cl)c2)C1` [Example 280, Methyl ((1S,3R)-3-((3-chloro-4-(4-(5-cyano-2-((1-(methylsulfonyl)piperidin-4-yl)amino)pyrimidin-4-yl)-1H-pyrazol-1-yl)benzyl)amino)cyclopentyl)carbamate] gave an IC50 below 50 nM.

`[2H]C([2H])([2H])NCc1ccc(-n2cc(-c3nc(NC4CCN(S(=O)(=O)C5CC5)CC4)ncc3C(F)(F)F)cn2)c(C)c1` [Example 130, N-(1-(Cyclopropylsulfonyl)piperidin-4-yl)-4-(1-(2-methyl-4-(((methyl-d3)amino)methyl)phenyl)-1H-pyrazol-4-yl)-5-(trifluoromethyl)pyrimidin-2-amine] yielded an IC50 below 50 nM.

Compound `COC[C@H]1CCN(CCCS(=O)(=O)N2CCC(Nc3ncc(C(F)(F)F)c(-c4cnn(CC(C)(C)O)c4)n3)CC2)C1` [Example 74, (S)-1-(4-(2-((1-((3-(3-(Methoxymethyl)pyrrolidin-1-yl)propyl)sulfonyl)piperidin-4-yl)amino)-5-(trifluoromethyl)pyrimidin-4-yl)-1H-pyrazol-1-yl)-2-methylpropan-2-ol] registered an IC50 below 50 nM.

`Cn1cnc(S(=O)(=O)N2CCC(Nc3ncc(C(F)(F)F)c(-c4cnn(C[C@H]5CCOC5)c4)n3)CC2)c1` [Example 33, (R)—N-(1-((1-Methyl-1H-imidazol-4-yl)sulfonyl)piperidin-4-yl)-4-(1-((tetrahydrofuran-3-yl)methyl)-1H-pyrazol-4-yl)-5-(trifluoromethyl)pyrimidin-2-amine] registered an IC50 below 50 nM.

`CS(=O)(=O)N1CCC(Nc2ncc(C(F)(F)F)c(-c3cnn(C4CCOCC4)c3)n2)CC1` [Example 3, N-(1-(Methylsulfonyl)piperidin-4-yl)-4-(1-(tetrahydro-2H-pyran-4-yl)-1H-pyrazol-4-yl)-5-(trifluoromethyl)pyrimidin-2-amine]: the IC50 was below 50 nM.

Consider `CC(C)(O)Cn1cc(-c2nc(NC3CCN(S(=O)(=O)c4ccccn4)CC3)ncc2C#N)cn1` [Example 55, 4-(1-(2-Hydroxy-2-methylpropyl)-1H-pyrazol-4-yl)-2-((1-(pyridin-2-ylsulfonyl)piperidin-4-yl)amino)pyrimidine-5-carbonitrile], for which the IC50 was below 50 nM.

Turning to `COC(=O)N[C@@H]1CC[C@@H](NCc2ccc(-n3cc(-c4nc(NC5CCN(S(C)(=O)=O)CC5)ncc4C#N)cn3)c(Cl)c2)C1` [Example 279, Methyl ((1R,3R)-3-((3-chloro-4-(4-(5-cyano-2-((1-(methylsulfonyl)piperidin-4-yl)amino)pyrimidin-4-yl)-1H-pyrazol-1-yl)benzyl)amino)cyclopentyl)carbamate], the IC50 was below 50 nM.

Compound `CCS(=O)(=O)N1CCC(Nc2ncc(C(F)(F)F)c(-c3cnn(-c4ccc(CN5CCN(C)CC5)cc4C)c3)n2)CC1` [Example 233, N-(1-(Ethylsulfonyl)piperidin-4-yl)-4-(1-(2-methyl-4-((4-methylpiperazin-1-yl)methyl)phenyl)-1H-pyrazol-4-yl)-5-(trifluoromethyl)pyrimidin-2-amine] showed an IC50 below 50 nM.

Compound `Cc1nc(CN2CCN(C(C)C)CC2)ccc1-n1cc(-c2nc(NC3CCN(S(=O)(=O)c4cn(C)cn4)CC3)ncc2C(F)(F)F)cn1` [Example 254, 4-(1-(6-((4-Isopropylpiperazin-1-yl)methyl)-2-methylpyridin-3-yl)-1H-pyrazol-4-yl)-N-(1-((1-methyl-1H-imidazol-4-yl)sulfonyl)piperidin-4-yl)-5-(trifluoromethyl)pyrimidin-2-amine] showed an IC50 below 50 nM.

Take `CNCc1ccc(-n2cc(-c3nc(NC4CCN(S(=O)(=O)c5cn(C)cn5)CC4)ncc3C(F)(F)F)cn2)c(C)n1` [Example 268, N-(1-((1-Methyl-1H-imidazol-4-yl)sulfonyl)piperidin-4-yl)-4-(1-(2-methyl-6-((methylamino)methyl)pyridin-3-yl)-1H-pyrazol-4-yl)-5-(trifluoromethyl)pyrimidin-2-amine]: the IC50 is below 50 nM.

As to `Cc1nc(CNC(C)(C)C2CC2)ccc1-n1cc(-c2nc(NC3CCN(S(C)(=O)=O)CC3)ncc2C#N)cn1` [Example 263, 4-(1-(6-(((2-Cyclopropylpropan-2-yl)amino)methyl)-2-methylpyridin-3-yl)-1H-pyrazol-4-yl)-2-((1-(methylsulfonyl)piperidin-4-yl)amino)pyrimidine-5-carbonitrile], the IC50 is below 50 nM.

`Cc1cc(CN2CCN(C)[C@@H](CO)C2)ccc1-n1cc(-c2nc(NC3CCN(S(=O)(=O)c4cn(C)cn4)CC3)ncc2C(F)(F)F)cn1` [Example 229, (R)-(1-Methyl-4-(3-methyl-4-(4-(2-((1-((1-methyl-1H-imidazol-4-yl)sulfonyl)piperidin-4-yl)amino)-5-(trifluoromethyl)pyrimidin-4-yl)-1H-pyrazol-1-yl)benzyl)piperazin-2-yl)methanol]: the IC50 is below 50 nM.

As to `CS(=O)(=O)N1CCC(Nc2ncc(C#N)c(-c3cnn(-c4ccc(CNC5CCN(S(C)(=O)=O)C5)cc4Cl)c3)n2)CC1` (racemic) [Example 198, (±)-4-(1-(2-Chloro-4-(((1-(methylsulfonyl)pyrrolidin-3-yl)amino)methyl)phenyl)-1H-pyrazol-4-yl)-2-((1-(methylsulfonyl)piperidin-4-yl)amino)pyrimidine-5-carbonitrile], the IC50 is below 50 nM.

In turn, `CC(C)(O)Cn1cc(-c2nc(N[C@H]3CCN(S(=O)(=O)CCCN4CCOCC4)C[C@H]3F)ncc2C(F)(F)F)cn1` [Example 201, 1-(4-(2-(((3R,4S)-3-Fluoro-1-((3-morpholinopropyl)sulfonyl)piperidin-4-yl)amino)-5-(trifluoromethyl)pyrimidin-4-yl)-1H-pyrazol-1-yl)-2-methylpropan-2-ol] yielded an IC50 below 50 nM.

`CC(C)(O)Cn1cc(-c2nc(NC3CCN(S(=O)(=O)CCCCN4CCCCC4)CC3)ncc2C#N)cn1` [Example 218, 4-(1-(2-Hydroxy-2-methylpropyl)-1H-pyrazol-4-yl)-2-((1-((4-(piperidin-1-yl)butyl)sulfonyl)piperidin-4-yl)amino)pyrimidine-5-carbonitrile]: the IC50 is below 50 nM.
